Assay results taken from PubChem BioAssay (NCI).
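Five compound concentrations were applied to cells in 96-well plates for 48 hours; endpoints were derived by simple linear interpolation of the resulting dose-response curve. Here, GI50 denotes the concentration required for 50% inhibition of growth. TGI marks complete inhibition of growth.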

Legend:
Assay in all cases: inhibition of tumour cell growth, NCI panel, 48 h
HCT-15 colon = test system: HCT-15 colon
PC-3 prostate = test system: PC-3 prostate
HCT-116 colon = test system: HCT-116 colon
HS 578T breast = test system: HS 578T breast
NCI-H23 lung = test system: NCI-H23 lung
IGROV1 ovarian = test system: IGROV1 ovarian
RXF 393 renal = test system: RXF 393 renal
TK-10 renal = test system: TK-10 renal
HL-60(TB) leukemia = test system: HL-60(TB) leukemia
A498 renal = test system: A498 renal
SR leukemia = test system: SR leukemia
U251 CNS = test system: U251 CNS
SN12C renal = test system: SN12C renal
OVCAR-3 ovarian = test system: OVCAR-3 ovarian
SK-MEL-28 melanoma = test system: SK-MEL-28 melanoma
MDA-MB-435 = test system: MDA-MB-435
NCI-H226 lung = test system: NCI-H226 lung
T-47D breast = test system: T-47D breast
SW-620 colon = test system: SW-620 colon
ACHN renal = test system: ACHN renal
UACC-257 melanoma = test system: UACC-257 melanoma
CAKI-1 renal = test system: CAKI-1 renal
RPMI-8226 leukemia = test system: RPMI-8226 leukemia
SF-539 CNS = test system: SF-539 CNS
MOLT-4 leukemia = test system: MOLT-4 leukemia
HOP-62 NSCLC = test system: HOP-62 NSCLC
SK-MEL-5 melanoma = test system: SK-MEL-5 melanoma
A549 NSCLC = test system: A549 NSCLC
NCI-H460 lung = test system: NCI-H460 lung
KM12 colon = test system: KM12 colon
SNB-19 CNS = test system: SNB-19 CNS
OVCAR-5 ovarian = test system: OVCAR-5 ovarian
OVCAR-4 ovarian = test system: OVCAR-4 ovarian
UACC-62 melanoma = test system: UACC-62 melanoma
MALME-3M melanoma = test system: MALME-3M melanoma
M14 melanoma = test system: M14 melanoma
MDA-MB-468 breast = test system: MDA-MB-468 breast
HT29 colon = test system: HT29 colon
DU-145 prostate = test system: DU-145 prostate
K-562 leukemia = test system: K-562 leukemia
NCI/ADR-RES ovarian = test system: NCI/ADR-RES ovarian
OVCAR-8 ovarian = test system: OVCAR-8 ovarian
SK-OV-3 ovarian = test system: SK-OV-3 ovarian
MCF7 breast = test system: MCF7 breast
SF-295 CNS = test system: SF-295 CNS
BT-549 breast = test system: BT-549 breast
COLO 205 colon = test system: COLO 205 colon
CCRF-CEM leukemia = test system: CCRF-CEM leukemia
HCC-2998 colon = test system: HCC-2998 colon
EKVX NSCLC = test system: EKVX NSCLC
NCI-H522 lung = test system: NCI-H522 lung
786-0 renal = test system: 786-0 renal
LOX IMVI melanoma = test system: LOX IMVI melanoma
SF-268 CNS = test system: SF-268 CNS
HOP-92 NSCLC = test system: HOP-92 NSCLC

N#Cc1c(-c2ccc(F)cc2)nc(SCc2ccc(F)cc2)nc1N1CCNCC1
GI50 (HCT-15 colon): 11.7 µM
TGI (HCT-15 colon): 24.6 µM
GI50 (PC-3 prostate): 12.5 µM
TGI (PC-3 prostate): 27.7 µM
GI50 (HCT-116 colon): 4.15 µM
TGI (HCT-116 colon): 15.6 µM
GI50 (HS 578T breast): 15.6 µM
TGI (HS 578T breast): 34.6 µM
GI50 (NCI-H23 lung): 16 µM
TGI (NCI-H23 lung): 30.4 µM
GI50 (IGROV1 ovarian): 15.6 µM
TGI (IGROV1 ovarian): 29.8 µM
GI50 (RXF 393 renal): 7.3 µM
TGI (RXF 393 renal): 21.4 µM
GI50 (TK-10 renal): 15 µM
TGI (TK-10 renal): 29.7 µM
GI50 (HL-60(TB) leukemia): 7.66 µM
TGI (HL-60(TB) leukemia): 24 µM
GI50 (A498 renal): 15.3 µM
TGI (A498 renal): 29.8 µM
GI50 (SR leukemia): 2.18 µM
TGI (SR leukemia): 5.07 µM
GI50 (U251 CNS): 10.3 µM
TGI (U251 CNS): 24.7 µM
GI50 (SN12C renal): 15.3 µM
TGI (SN12C renal): 29 µM
GI50 (OVCAR-3 ovarian): 15.5 µM
TGI (OVCAR-3 ovarian): 30.8 µM
GI50 (SK-MEL-28 melanoma): 16.4 µM
TGI (SK-MEL-28 melanoma): 30.2 µM
GI50 (MDA-MB-435): 16.8 µM
TGI (MDA-MB-435): 31.3 µM
GI50 (NCI-H226 lung): 15.9 µM
TGI (NCI-H226 lung): 35.7 µM
GI50 (T-47D breast): 13.8 µM
TGI (T-47D breast): 30.4 µM
GI50 (SW-620 colon): 5.97 µM
TGI (SW-620 colon): 19.2 µM
GI50 (ACHN renal): 15 µM
TGI (ACHN renal): 28.5 µM
GI50 (UACC-257 melanoma): 14.8 µM
TGI (UACC-257 melanoma): 28.7 µM
GI50 (CAKI-1 renal): 15.3 µM
TGI (CAKI-1 renal): 29 µM
GI50 (RPMI-8226 leukemia): 6.75 µM
TGI (RPMI-8226 leukemia): 24.6 µM
GI50 (SF-539 CNS): 15.6 µM
TGI (SF-539 CNS): 29 µM
GI50 (MOLT-4 leukemia): 10.5 µM
TGI (MOLT-4 leukemia): 26 µM
GI50 (HOP-62 NSCLC): 17 µM
TGI (HOP-62 NSCLC): 33.4 µM
GI50 (SK-MEL-5 melanoma): 16.8 µM
TGI (SK-MEL-5 melanoma): 30.5 µM
GI50 (A549 NSCLC): 11.5 µM
TGI (A549 NSCLC): 25 µM
GI50 (NCI-H460 lung): 14.3 µM
TGI (NCI-H460 lung): 29.4 µM
GI50 (KM12 colon): 18 µM
TGI (KM12 colon): 33.6 µM
GI50 (SNB-19 CNS): 14.9 µM
TGI (SNB-19 CNS): 29.4 µM
GI50 (OVCAR-5 ovarian): 14.5 µM
TGI (OVCAR-5 ovarian): 28 µM
GI50 (OVCAR-4 ovarian): 16.5 µM
TGI (OVCAR-4 ovarian): 33.6 µM
GI50 (UACC-62 melanoma): 15.9 µM
TGI (UACC-62 melanoma): 29.9 µM
GI50 (MALME-3M melanoma): 14.7 µM
TGI (MALME-3M melanoma): 28.4 µM
GI50 (M14 melanoma): 13.6 µM
TGI (M14 melanoma): 26.8 µM
GI50 (MDA-MB-468 breast): 12.4 µM
TGI (MDA-MB-468 breast): 26.2 µM
GI50 (HT29 colon): 4.87 µM
TGI (HT29 colon): 17.3 µM
GI50 (DU-145 prostate): 16.8 µM
TGI (DU-145 prostate): 31.3 µM
GI50 (K-562 leukemia): 3.76 µM
TGI (K-562 leukemia): 17.8 µM
GI50 (NCI/ADR-RES ovarian): 13.7 µM
TGI (NCI/ADR-RES ovarian): 30.4 µM
GI50 (OVCAR-8 ovarian): 13.2 µM
TGI (OVCAR-8 ovarian): 30.5 µM
GI50 (SK-OV-3 ovarian): 16 µM
TGI (SK-OV-3 ovarian): 29.8 µM
GI50 (MCF7 breast): 6.43 µM
TGI (MCF7 breast): 20.2 µM
GI50 (SF-295 CNS): 16.6 µM
TGI (SF-295 CNS): 30.9 µM
GI50 (BT-549 breast): 10.7 µM
TGI (BT-549 breast): 23 µM
GI50 (COLO 205 colon): 1.83 µM
TGI (COLO 205 colon): 3.4 µM
GI50 (CCRF-CEM leukemia): 14.8 µM
TGI (CCRF-CEM leukemia): 33.6 µM
GI50 (HCC-2998 colon): 2.53 µM
TGI (HCC-2998 colon): 6.27 µM
GI50 (EKVX NSCLC): 13.1 µM
TGI (EKVX NSCLC): 26.4 µM
GI50 (NCI-H522 lung): 13.9 µM
TGI (NCI-H522 lung): 29.9 µM
GI50 (786-0 renal): 13.8 µM
TGI (786-0 renal): 29.3 µM
GI50 (LOX IMVI melanoma): 2.28 µM
TGI (LOX IMVI melanoma): 5.69 µM
GI50 (SF-268 CNS): 14.1 µM
TGI (SF-268 CNS): 30.9 µM
GI50 (HOP-92 NSCLC): 7.64 µM
TGI (HOP-92 NSCLC): 22.1 µM
